Test results: patent US20230278969A1, “CERTAIN (2S)-N-[(1S)-1-CYANO-2-PHENYLETHYL]-1,4-OXAZEPANE-2-CARBOXAMIDES AS DIPEPTIDYL PEPTIDASE 1 INHIBITORS” (AstraZeneca AB, priority 2014, published 2023)

Columns and labels:
[1] = biological target: recombinant human (RH) DPP1 (Homo sapiens (Human), UniProt P53634); assay: Test A1: Fluorescence Assay for Recombinant Human (RH) DPP1; format: biochemical; conditions: Test A1 (Examples 1-35); rhDPP1 ~50 pM, 100 µM H-Gly-Arg-AMC, 22° C.
Procedure: Test A1: Fluorescence Assay for Recombinant Human (RH) DPP1
The activity of DPP1 was determined by measuring the enzymatic release of aminomethyl coumarin (AMC) from the peptide substrate (H-Gly-Arg-AMC), which leads to an increase in fluorescence intensity at λex =350 nm and λem =450 nm. The assay was carried out in black 384 well plates in a final volume of 50 µl at 22° C. The assay conditions contained the following: 25 mM piperazine buffer pH 5.0; 50 mM NaCl, 5 mM DTT; 0.01% (v/v) Triton X-100; 100 µMH-Gly-Arg-AMC and rhDPP1 (~50 pM). […] Routinely, inhibitors were pre-incubated with rhDPP1 for 30-60 min prior to the addition of the peptide substrate to start the reaction for a further 60 min at 22° C.

[2] = QWBA studies, literature (Schmidt et al. 1984); cited from earlier work
[3] = Test B: In-vitro Competitive Aortic Tissue Binding Assay; parameters: species or system Han Wistar rats; conditions: 100 µM compound, competition with [14C]-labelled WO2010/128324 Ex. 3, categories strong binder, medium binder, no binder
Procedure: To assist the design of DPP1 inhibitors with a decreased risk of binding to elastin rich tissues, such as the aorta, the in-vitro competitive aortic binding assay disclosed below (Test B) was developed to facilitate the selection process.
Test B: In-vitro Competitive Aortic Tissue Binding Assay
Aortic homogenate was prepared from the thoracic aortae of Han Wistar rats. Freshly isolated thoracic aortae were frozen, and later thawed and stripped of non-elastic material. […] Homogenate concentration was adjusted to 30 mg/mL in Puck’s saline, and aliquots were stored at -80° C. until use. Positive and negative control compounds and test compounds were made up to 100 mM in DMSO, and added to 1 mL aliquots of aortic homogenate in Puck’s saline for a final concentration of 100 µM. Homogenate samples were pre-incubated with test compounds at 37° C., rotating, overnight. [^14C]4-Amino-N-[(1S)-1-cyano-2-(4′-cyanobiphenyl-4-yl)ethyl]tetrahydro-2H-pyran-4-carboxamide was then added to all samples to a final concentration of 100 µM, and samples were incubated at 37° C., rotating, for a further 2 h. Protein was precipitated from each sample by the addition of 10 mL acetone, prechilled to -20° C. Samples were left overnight at -20° C. to allow complete precipitation. […] Precipitate was washed by resuspension in 10 mL 80% methanol in distilled water, and re-pelleted by centrifugation at 4,500 × g at 4° C. for 20 min. […] After final wash, precipitate was air-dried, and dissolved overnight in 1 mL NCSII Tissue Solubiliser. 1 mL aliquots of supernatants were added to 5 mL Ultima Gold scintillation fluid (Perkin Elmer, MA, U.S.A.), and 1 mL solubilised pellets were added to 5 mL Hionic-Fluor scintillation fluid (Perkin Elmer, MA, U.S.A.). Radioactivity of samples was determined on a Beckman LS6500 multipurpose scintillation counter (Beckman Coulter, IN, U.S.A.). […] Duplicate samples were tested for each compound on each experimental occasion, and at least two experiments were run for each test compound. […] 1-way ANOVA and Bonferroni’s multiple comparison tests were performed to calculate significance of differences from vehicle control.

[4] = rat quantitative whole-body autoradiography (QWBA) studies; format: in vivo

Chain of recombinant human (RH) DPP1 (P53634 231-394): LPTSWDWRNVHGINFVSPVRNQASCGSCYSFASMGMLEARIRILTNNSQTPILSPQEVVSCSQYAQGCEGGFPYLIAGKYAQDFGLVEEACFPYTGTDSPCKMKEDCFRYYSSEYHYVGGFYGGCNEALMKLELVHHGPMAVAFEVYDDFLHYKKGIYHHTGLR
Chain of recombinant human (RH) DPP1 (P53634 25-143): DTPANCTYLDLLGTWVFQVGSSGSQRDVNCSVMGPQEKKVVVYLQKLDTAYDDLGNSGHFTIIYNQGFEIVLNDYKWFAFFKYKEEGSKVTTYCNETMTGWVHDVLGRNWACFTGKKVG
Chain of recombinant human (RH) DPP1 (P53634 395-463): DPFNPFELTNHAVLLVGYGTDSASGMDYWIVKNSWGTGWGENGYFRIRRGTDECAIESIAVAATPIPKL

| Compound | DPP1 activity, pIC50 [1] | Aortic Tissue Binding [3] | further results |
| --- | --- | --- | --- |
| CS(=O)(=O)Oc1cccc(-c2ccc(C[C@@H](C#N)NC(=O)[C@@H]3CNCCCO3)cc2)c1 [Example 4, 4′-[(2S)-2-Cyano-2-{[(2S)-1,4-oxazepan-2-ylcarbonyl] Amino}ethyl] Biphenyl-3-yl methanesulfonate] | 7.1 | – | – |
| N#Cc1ccc(-c2ccc(C[C@@H](C#N)NC(=O)[C@@H]3CNCCCO3)cc2)cc1 [Example 1, (2S)-N-[(1S)-1-Cyano-2-(4′-cyanobiphenyl-4-yl)ethyl]-1,4-oxazepane-2-carboxamide] | 7.45 | – | – |
| Cc1cc(-c2ccc(C[C@@H](C#N)NC(=O)[C@@H]3CNCCCO3)cc2)cc2c1oc(=O)n2C [Example 3, (2S)-N-{(1S)-1-Cyano-2-[4-(3,7-dimethyl-2-oxo-2,3-dihydro-1,3-benzoxazol-5-yl)phenyl]ethyl}-1,4-oxazepane-2-carboxamide] | 7.99 | – | – |
| CC(c1ccc(Cl)c(Cl)c1)N1N=C(N)CC1=O (stereo not shown) [muzolimine] | – | – | retention in the aorta [2]: retained selectively in the aorta |
| Cn1c(=O)oc2ccc(-c3ccc(C[C@@H](C#N)NC(=O)[C@@H]4CNCCCO4)cc3)cc21 [Example 2, (2S)-N-{(1S)-1-cyano-2-[4-(3-methyl-2-oxo-2,3-dihydro-1,3-benzoxazol-5-yl)phenyl]ethyl}-1,4-oxazepane-2-carboxamide] | – | No binder | – |

Continued, in another order:

| DPP1 activity, pIC50 [1] | Aortic Tissue Binding [3] | Compound | further results |
| --- | --- | --- | --- |
| – | Strong binder | Cn1c(=O)oc2ccc(-c3ccc(C[C@@H](C#N)NC(=O)C4(N)CCOCC4)cc3)cc21 [WO2010/128324 (Example 17)] | – |
| – | Binder | N#Cc1ccc(-c2ccc(C[C@@H](C#N)NC(=O)[C@@H]3CCCCN3)cc2)cc1 [WO2009/074829 (Example 24)] | – |
| – | Medium binder | Cn1c(=O)oc2ccc(-c3ccc(C[C@@H](C#N)NC(=O)[C@@H]4CCCCN4)cc3)cc21 [WO2009/074829 (Example 96)] | – |
| – | Strong binder (reference) | N#Cc1ccc(-c2ccc(C[C@@H](C#N)NC(=O)C3(N)CCOCC3)cc2)cc1 [WO2010/128324 (Ex. 3), 4-amino-N-[(1S)-1-cyano-2-(4′-cyanobiphenyl-4-yl)ethyl]tetrahydro-2H-pyran-4-carboxamide] | aortic retention [4]: high level of aortic retention |
